According to patent US12545652B2, “Crystalline forms of a TYK2 inhibitor” (Sareum Limited, priority 2020, dated 2026):
≈ marks a conversion by molar mass, not a printed value.

Columns and labels:
Format in all cases: physicochemical
[1] = Solubility at 25° C. by HPLC of filtrates after equilibration of Form A in solvents; details: for solubility: 25 °C, organic solvent or mixture, thermodynamic from solid
[2] = Dynamic vapour sorption (DVS); details: 25° C.
Method: Sorption isotherms were obtained using a Hiden Isochema moisture sorption analyser (model IGAsorp), controlled by IGAsorp Systems Software V6.50.48. The sample was maintained at a constant temperature (25° C.) by the instrument controls. The humidity was controlled by mixing streams of dry and wet nitrogen, with a total flow of 250 ml·min^−1. The instrument was verified for relative humidity content by measuring three calibrated Rotronic salt solutions (10-50-88%). The weight change of the sample was monitored as a function of humidity by a microbalance (accuracy +/−0.005 mg). A defined amount of sample was placed in a tared mesh stainless steel basket under ambient conditions. A full experimental cycle typically consisted of three scans (sorption, desorption and sorption) at a constant temperature (25° C.) and 10% RH intervals over a 0-90% range (60 minutes for each humidity level).

[3] = Compression stability test (10×10^4N force)
Method: Compression stability tests were carried out on samples from two batches of crystalline Form A and samples from two batches of Crystalline Form B. One pair of samples of Form A and Form B was subjected to compression under 10×10^4N force for 23 and 23¾ hours respectively to assess the impact upon form fate and chemical stability.
The other pair of samples of Form A and Form B was subjected to similar compression pressures over an extended duration of 7 days to assess the impact of prolonged compression force upon form fate and chemical stability.

[4] = Rapidly cooled, reverse anti-solvent addition crystallisation at −10° C., observations and form fate by XRPD; details: for Observation: −10° C., 30 vol. anti-solvent; for Crystalline Form fate by XRPD: Reverse addition to anti-solvent at −10° C.
Method: Anti-solvent crystallisation was carried out by dissolving 2-(2,6-dichlorophenyl)-5-[4-(1,1-dioxo-1,4-thiazinane-4-carbonyl)anilino]oxazole-4-carboxamide in a solvent with heating, clarifying the solution and adding cold anti-solvent using the following method.
2-(2,6-dichlorophenyl)-5-[4-(1,1-dioxo-1,4-thiazinane-4-carbonyl)anilino]oxazole-4-carboxamide, 4×153-155 mg, was weighed into four crystallisation tubes and a different solvent (see Table 10) was charged into each. The mixtures were heated to 60° C. to achieve dissolution and then clarified.
Three anti-solvents (see Table 10), 1.5 ml, were each charged to four crystallisation tubes and cooled to −10° C.
The clarified solutions of 2-(2,6-dichlorophenyl)-5-[4-(1,1-dioxo-1,4-thiazinane-4-carbonyl)anilino]oxazole-4-carboxamide at 60° C. were charged to the cold anti-solvents in aliquots containing ca. 50 mg of the compound (into ca. 30 vol. anti-solvent) and immediate observations were noted.
The resulting mixtures were equilibrated at −10° C. for ca. 22 hours, observations were made and the solids were isolated. All isolated solids were dried in vacuo under air for ca. 20 minutes and then dried in vacuo at 45° C. for 23½ hours.

## NC(=O)c1nc(-c2c(Cl)cccc2Cl)oc1Nc1ccc(C(=O)N2CCS(=O)(=O)CC2)cc1 [Form A, 2-(2,6-dichlorophenyl)-5-[4-(1,1-dioxo-1,4-thiazinane-4-carbonyl)anilino]oxazole-4-carboxamide]
[1]; 2-Chlorobutane
  Solubility at 25° C.: 290 µg/mL (≈ 0.569 mM)
[1]; 4:1 IPA/water, 4:1 IPA/water
  solubility: 7650 µg/mL (≈ 15 mM)
[1]; 4:1 MeCN/water, 4:1 MeCN/water
  solubility: 19800 µg/mL (≈ 38.8 mM)
[1]; 4:1 THF/water
  Solubility at 25° C.: >67000 µg/mL
[1]; Anisole
  Solubility at 25° C.: 10610 µg/mL (≈ 20.8 mM)
[1]; CPME
  solubility: 1870 µg/mL (≈ 3.67 mM)
[1]; Cyclohexane
  Solubility at 25° C.: 10 µg/mL (≈ 0.0196 mM)
[1]; DCM
  Solubility at 25° C.: 22830 µg/mL (≈ 44.8 mM)
[1]; EtOAc
  solubility: 6640 µg/mL (≈ 13 mM)
[1]; EtOH
  solubility: 5200 µg/mL (≈ 10.2 mM)
[1]; IPA
  solubility: 2450 µg/mL (≈ 4.81 mM)
[1]; MEK
  solubility: 6080 µg/mL (≈ 11.9 mM)
[1]; MIBK
  solubility: 7400 µg/mL (≈ 14.5 mM)
[1]; MeCN
  solubility: 9160 µg/mL (≈ 18 mM)
[1]; MeOH
  solubility: 2520 µg/mL (≈ 4.95 mM)
[1]; Nitromethane
  Solubility at 25° C.: 20520 µg/mL (≈ 40.3 mM)
[1]; TBME
  Solubility at 25° C.: 700 µg/mL (≈ 1.37 mM)
[1]; THF
  Solubility at 25° C.: 33300 µg/mL (≈ 65.4 mM)
[1]; Water
  Solubility at 25° C.: 60 µg/mL (≈ 0.118 mM)
[1]; benzotrifluoride
  solubility: 160 µg/mL (≈ 0.314 mM)
[1]; chlorobenzene
  solubility: 1870 µg/mL (≈ 3.67 mM)
[1]; iPrOAc
  solubility: 6960 µg/mL (≈ 13.7 mM)
[1]; toluene
  solubility: 1120 µg/mL (≈ 2.2 mM)
[2]; from 0 to 90% RH
  DVS total weight gain upon sorption: ca. 3.25 wt %
[2]; from 50 to 0% RH
  DVS weight reduction upon the first desorption: ca. 2.75 wt %
[3]; compression for 7 days
  HPLC assessment post-compression (chemical stability): significant chemical degradation
[3]; compression for both ca. 1 and 7 days
  XRPD examination of solids isolated post-compression (form fate): diffraction pattern matching the input Form A but of reduced diffraction resolution
[3]; compression for ca. 1 day (23 / 23¾ hours), 10×10^4N
  HPLC assessment post-compression (chemical stability): no discernible chemical degradation
[4]; ID A1, THF/water, 4:1 10 vol., Heptane, 5 Hrs
  Observation: Suspension
[4]; ID A1, THF/water, 4:1 10 vol., Heptane, 22 Hrs
  Observation: Suspension
[4]; ID A1, THF/water, 4:1 10 vol., Heptane, Immediate
  Observation: Gum
[4]; ID A2, THF/water, 4:1 10 vol., Benzotrifluoride, 5 Hrs
  Observation: Suspension
[4]; ID A2, THF/water, 4:1 10 vol., Benzotrifluoride, 22 Hrs
  Observation: Suspension
[4]; ID A2, THF/water, 4:1 10 vol., Benzotrifluoride, Immediate
  Observation: Suspension
[4]; ID A3, THF/water, 4:1 10 vol., 2-Chlorobutane, 5 Hrs
  Observation: Suspension
[4]; ID A3, THF/water, 4:1 10 vol., 2-Chlorobutane, 22 Hrs
  Observation: Suspension
[4]; ID A3, THF/water, 4:1 10 vol., 2-Chlorobutane, Immediate
  Observation: Suspension
[4]; ID B1, THF 25 vol., Heptane, 5 Hrs
  Observation: Suspension
[4]; ID B1, THF 25 vol., Heptane, 22 Hrs
  Observation: Suspension
[4]; ID B1, THF 25 vol., Heptane, Immediate
  Observation: Suspension
[4]; ID B2, THF 25 vol., Benzotrifluoride, 5 Hrs
  Observation: Suspension
[4]; ID B2, THF 25 vol., Benzotrifluoride, 22 Hrs
  Observation: Suspension
[4]; ID B2, THF 25 vol., Benzotrifluoride, Immediate
  Observation: Suspension
[4]; ID B3, THF 25 vol., 2-Chlorobutane, 5 Hrs
  Observation: Suspension
[4]; ID B3, THF 25 vol., 2-Chlorobutane, 22 Hrs
  Observation: Suspension
[4]; ID B3, THF 25 vol., 2-Chlorobutane, Immediate
  Observation: Suspension
[4]; ID C1, Nitromethane 50 vol., Heptane, 5 Hrs
  Observation: Bi. Susp.
[4]; ID C1, Nitromethane 50 vol., Heptane, 22 Hrs
  Observation: Bi. Susp.
[4]; ID C1, Nitromethane 50 vol., Heptane, Immediate
  Observation: Immiscible
[4]; ID C2, Nitromethane 50 vol., Benzotrifluoride, 5 Hrs
  Observation: Solution
[4]; ID C2, Nitromethane 50 vol., Benzotrifluoride, 22 Hrs
  Observation: Suspension
[4]; ID C2, Nitromethane 50 vol., Benzotrifluoride, Immediate
  Observation: Solution
[4]; ID C3, Nitromethane 50 vol., 2-Chlorobutane, 5 Hrs
  Observation: Solution
[4]; ID C3, Nitromethane 50 vol., 2-Chlorobutane, 22 Hrs
  Observation: Haze
[4]; ID C3, Nitromethane 50 vol., 2-Chlorobutane, Immediate
  Observation: Solution
[4]; ID D1, MeCN/water, 4:1 55 vol., Heptane, 5 Hrs
  Observation: Bi. Susp.
[4]; ID D1, MeCN/water, 4:1 55 vol., Heptane, 22 Hrs
  Observation: Bi. Susp.
[4]; ID D1, MeCN/water, 4:1 55 vol., Heptane, Immediate
  Observation: Immiscible
[4]; ID D2, MeCN/water, 4:1 55 vol., Benzotrifluoride, 5 Hrs
  Observation: Suspension
[4]; ID D2, MeCN/water, 4:1 55 vol., Benzotrifluoride, 22 Hrs
  Observation: Suspension
[4]; ID D2, MeCN/water, 4:1 55 vol., Benzotrifluoride, Immediate
  Observation: Haze
[4]; ID D3, MeCN/water, 4:1 55 vol., 2-Chlorobutane, 5 Hrs
  Observation: Suspension
[4]; ID D3, MeCN/water, 4:1 55 vol., 2-Chlorobutane, 22 Hrs
  Observation: Suspension
[4]; ID D3, MeCN/water, 4:1 55 vol., 2-Chlorobutane, Immediate
  Observation: Haze
[4]; MeCN/water, 4:1 55 vol., 2-Chlorobutane
  Crystalline Form fate by XRPD: Form B
[4]; MeCN/water, 4:1 55 vol., Benzotrifluoride
  Crystalline Form fate by XRPD: Form B
[4]; MeCN/water, 4:1 55 vol., Heptane
  Crystalline Form fate by XRPD: Form A
[4]; Nitromethane 50 vol., 2-Chlorobutane
  Crystalline Form fate by XRPD: Form B/C mix
[4]; Nitromethane 50 vol., Benzotrifluoride
  Crystalline Form fate by XRPD: Form C
[4]; Nitromethane 50 vol., Heptane
  Crystalline Form fate by XRPD: Form C
[4]; THF 25 vol., 2-Chlorobutane
  Crystalline Form fate by XRPD: Low cryst. Form C
[4]; THF 25 vol., Benzotrifluoride
  Crystalline Form fate by XRPD: Low cryst. Form B
[4]; THF 25 vol., Heptane
  Crystalline Form fate by XRPD: Low cryst. Form B +
[4]; THF/water, 4:1 10 vol., 2-Chlorobutane
  Crystalline Form fate by XRPD: Low cryst. Form B
[4]; THF/water, 4:1 10 vol., Benzotrifluoride
  Crystalline Form fate by XRPD: Low cryst. Form B
[4]; THF/water, 4:1 10 vol., Heptane
  Crystalline Form fate by XRPD: Low cryst. Form B
